Test results as given in the NIST ThermoML archive (doi:10.1016/j.jct.2018.11.010).

Assay: xn = mol fraction of the nth substance listed
Settings: Liquid, Vibrating tube method

CCCCCCCO [heptan-1-ol] + CCCCOCCCC
mass density [kg/m3]
Settings	x2 = 0	x2 = 0.1488	x2 = 0.3201	x2 = 0.4944	x2 = 0.7014	x2 = 0.8534
298.15 K, 100 kPa	818.7	810.1	800.3	790.9	779.5	771.7
298.15 K, 1000 kPa	819.3	810.8	801	791.6	780.2	772.5
298.15 K, 5000 kPa	821.9	813.5	803.9	794.6	783.5	775.8
298.15 K, 10000 kPa	824.9	816.7	807.3	798.3	787.3	779.9
298.15 K, 15000 kPa	828	819.9	810.6	801.8	791	783.7
298.15 K, 20000 kPa	830.8	822.9	813.8	805	794.5	787.4
298.15 K, 25000 kPa	833.5	825.8	816.9	808.3	797.9	790.8
298.15 K, 30000 kPa	836.3	828.6	819.8	811.4	801.1	794.2
298.15 K, 35000 kPa	838.8	831.2	822.6	814.3	804.2	797.4
298.15 K, 40000 kPa	841.3	833.9	825.3	817.1	807.3	800.5
298.15 K, 45000 kPa	843.8	836.5	828	819.9	810.2	803.5
298.15 K, 50000 kPa	846.2	838.9	830.6	822.6	813	806.4
298.15 K, 55000 kPa	848.5	841.3	833.1	825.3	815.7	809.2
298.15 K, 60000 kPa	850.8	843.7	835.5	827.8	818.4	811.9
298.15 K, 65000 kPa	853	845.9	837.9	830.3	820.9	814.6
298.15 K, 70000 kPa	855.2	848.2	840.3	832.7	823.5	817.2
298.15 K, 80000 kPa	859.4	852.6	844.8	837.3	828.3	822.2
298.15 K, 90000 kPa	863.5	856.7	849.1	841.9	833	827
298.15 K, 100000 kPa	867.3	860.7	853.2	846.1	837.4	831.5
298.15 K, 110000 kPa	871.1	864.6	857.2	850.2	841.6	835.8
298.15 K, 120000 kPa	874.6	868.2	861	854	845.6	839.9
298.15 K, 130000 kPa	878.1	871.8	864.6	857.8	849.6	843.9
298.15 K, 140000 kPa	881.5	875.3	868.2	861.4	853.3	847.8
313.15 K, 100 kPa	808	799	788.8	778.9	767	758.8
313.15 K, 1000 kPa	808.6	799.7	789.5	779.7	767.8	759.7
313.15 K, 5000 kPa	811.4	802.6	792.5	783	771.3	763.3
313.15 K, 10000 kPa	814.7	806.1	796.3	786.9	775.6	767.8
313.15 K, 15000 kPa	817.9	809.5	799.8	790.7	779.5	771.9
313.15 K, 20000 kPa	821	812.7	803.3	794.3	783.4	775.9
313.15 K, 25000 kPa	823.8	815.6	806.4	797.5	786.8	779.4
313.15 K, 30000 kPa	826.8	818.8	809.7	801	790.5	783.3
313.15 K, 35000 kPa	829.5	821.6	812.7	804.2	793.7	786.7
313.15 K, 40000 kPa	832.1	824.4	815.5	807.1	796.9	790
313.15 K, 45000 kPa	834.7	827	818.3	810.1	800	793.2
313.15 K, 50000 kPa	837.2	829.7	821.1	812.9	803	796.3
313.15 K, 55000 kPa	839.7	832.3	823.8	815.7	805.9	799.3
313.15 K, 60000 kPa	842.1	834.8	826.4	818.4	808.7	802.2
313.15 K, 65000 kPa	844.4	837.2	828.9	821	811.5	804.9
313.15 K, 70000 kPa	846.7	839.6	831.3	823.5	814.1	807.7
313.15 K, 80000 kPa	851.1	844	836	828.4	819.1	812.9
313.15 K, 90000 kPa	855.3	848.4	840.6	833.2	824	817.9
313.15 K, 100000 kPa	859.3	852.5	844.8	837.5	828.7	822.6
313.15 K, 110000 kPa	863.2	856.6	849.1	841.8	833.2	827.2
313.15 K, 120000 kPa	867	860.4	853	845.9	837.3	831.5
313.15 K, 130000 kPa	870.6	864.2	856.9	849.9	841.4	835.7
313.15 K, 140000 kPa	874.2	867.8	860.6	853.7	845.4	839.8
333.15 K, 100 kPa	793.3	783.8	772.9	762.5	749.9	741.3
333.15 K, 1000 kPa	794	784.6	773.7	763.4	750.8	742.3
333.15 K, 5000 kPa	797.1	787.8	777.2	767.1	754.8	746.5
333.15 K, 10000 kPa	800.7	791.7	781.4	771.5	759.6	751.4
333.15 K, 15000 kPa	804.3	795.4	785.3	775.8	764.1	756.1
333.15 K, 20000 kPa	807.7	798.9	789.1	779.6	768.3	760.5
333.15 K, 25000 kPa	810.8	802.3	792.6	783.4	772.2	764.7
333.15 K, 30000 kPa	813.9	805.5	796	787	776.1	768.6
333.15 K, 35000 kPa	816.9	808.7	799.3	790.4	779.7	772.4
333.15 K, 40000 kPa	819.8	811.7	802.5	793.7	783.2	776.1
333.15 K, 45000 kPa	822.4	814.5	805.5	796.9	786.5	779.5
333.15 K, 50000 kPa	825.2	817.4	808.5	800	789.8	782.9
333.15 K, 55000 kPa	827.8	820.1	811.3	802.9	792.9	786
333.15 K, 60000 kPa	830.3	822.7	814.1	805.8	795.9	789.2
333.15 K, 65000 kPa	832.9	825.3	816.8	808.6	798.9	792.2
333.15 K, 70000 kPa	835.3	827.9	819.5	811.4	801.7	795.1
333.15 K, 80000 kPa	839.9	832.7	824.4	816.6	807.1	800.7
333.15 K, 90000 kPa	844.5	837.4	829.3	821.6	812.3	806
333.15 K, 100000 kPa	848.7	841.7	833.8	826.3	817.2	811.1
333.15 K, 110000 kPa	852.8	845.9	838.2	830.8	821.9	815.9
333.15 K, 120000 kPa	856.8	850	842.3	835.1	826.4	820.5
333.15 K, 130000 kPa	860.5	853.9	846.4	839.3	830.7	824.8
333.15 K, 140000 kPa	864.3	–	–	–	–	–
